The record followed here is patent publication US20240294876A1, “METHODS FOR THE EXPANSION OF HUMAN GRANULOCYTE-MACROPHAGE PROGENITORS AND APPLICATIONS THEREOF” (University of Southern California, priority 2021, published 2024).

In assay [1] the test system is bone marrow cells isolated from adult C57BL/6 mice. In words: Small molecule screen for colony formation of mouse bone marrow cells in serum-free N2B27. As to conditions: 96-well plates, serum-free N2B27, single small molecule, 7 days in culture. The format is cell-based. The source says:
(§1) (A) Schematic of the experimental design to identify growth factors and small molecules that can promote expansion of mouse bone marrow-derived stem cells. (B) Representative phase-contrast images of mouse bone marrow cells cultured in N2B27 supplemented with the indicated small molecule inhibitors for 7 days. (C) Representative phase-contrast images of mouse bone marrow cells cultured in N2B27 supplemented with SCF plus GDC0879 or SB590885 for 3 passages. (D) Cell growth curves. Bone marrow cells isolated from C57BL/6J mice were plated into 24-well plates at a density of 2×10^5 cells/well and cultured in B7 medium supplemented with the indicated small molecules/growth factor. Cells were counted and passaged every 3 days. Data are represented as mean±SD from three independent experiments. (E) Bone marrow cells isolated from C57BL/6J mice were cultured in B7 medium supplemented with SCF/2i. Cells were passaged every 3 days. Representative phase-contrast pictures showing SCF/2i cells at different passages. (F) Cytogenetic analysis of SCF/2i cells using the GWT banding method. Bone marrow cells isolated from a female C57BL/6J mouse were expanded in SCF/2i for 8 passages before used for cytogenetic analysis. […] (G) Sequential images of individual bone marrow cells during expansion in B7 medium supplemented with SCF/2i. SCF/2i-expanded bone marrow cells were plated into 96-well plates at a density of 50 cells/well and cultured in SCF/2i. Sequential images were taken using the Keyence BZ-X710 microscopy every 24 hours. 15.7±4.0 colonies formed per well on day 4 (n=3×96). Data are represented as mean±SD from three independent experiments.
Based on this finding, it was postulated that many, if not all, types of stem cells can be maintained during long-term in vitro culture by inhibiting signaling pathways responsible for initiating differentiation. […]

Assay [2] relates to mouse GMPs. The assay is described as follows: Ex vivo expansion of mouse bone marrow-derived cells / mouse GMPs. It counts as cell-based. Particulars: for ability to mimic the effect of SKL2001 for the expansion of mouse GMPs: in place of SKL2001; for effect on expansion of mouse GMPs in SCF/2i: Wnt/β-catenin signaling inhibitor added to SCF/2i.
Source text: as §1
Mouse GMP derivation, expansion, and differentiation. Cells were cultured at 37° C. in a 5% CO2 water jacket incubator (Thermo Scientific). Bone marrow cells isolated from C57BL/6J, mTmG or CAG-Cas9-EGFP mice were plated into 6-well plates at a density of 2×10^6 cells/well and cultured in 2 mL B7 medium supplemented with 50 ng/mL SCF, 1 μM GDC-0879, and 10 μM SKL2001 (SCF/2i). After 3-4 days, cells were dissociated into single-cell suspension by pipetting up and down and replated into 6-well plates at a density of 2×10^6 cells/well and cultured in 2 mL B7 medium supplemented with SCF/2i. After 2 passages in SCF/2i, the majority of cells were GMPs. GMPs were routinely passaged every 3 days. To induce differentiation, GMPs were plated into 10 cm tissue culture dishes and cultured in RPMI-1640 medium containing 10% FBS and supplemented with either 20 ng/mL M-CSF (for macrophage differentiation) or 20 ng/mL G-CSF (for granulocyte differentiation). GMP-derived macrophages were harvested on day 7 (medium was changed once on day 4) and GMP-derived granulocytes were harvested on day 3 and used for the further experiments.
Development of defined conditions for the long-term ex vivo expansion of hematopoietic stem/progenitor cells. To develop conditions for the long-term expansion of stem or progenitor cells of the hematopoietic system, screening was conducted to identify small molecules and growth factors/cytokines that can promote their ex vivo expansion (see FIG. 3A). Specifically, bone marrow cells isolated from adult C57BL/6 mice were plated into 96-well plates in serum-free N2B27 medium. Then a first-round small molecule screening was performed. It was reasoned that if a small molecule can block differentiation or promote expansion of stem cells, these stem cells should form colonies with a uniform cell morphology. […] Upon passaging, however, no new colonies were formed in culture with any of the 5 small molecule inhibitors. A second-round screening was conducted to identify growth factors/cytokines that could further improve the expansion of the colonies.
More importantly, these cells could be expanded robustly at clonal density (see FIG. 3G).
SCF/2i-expanded cells are GMPs. […]

Assay [3] deals with T1, myeloperoxidase (MPO) (Mus musculus, UniProt P11247).
T1 construct: The supernatants were harvested and MPO activities were measured using the neutrophil MPO activity assay kit; endogenous in cells; host or cells: mouse SCF/2i GMPs, SCF/2i GMP-derived granulocytes and mouse blood neutrophils; MPO measured in culture supernatant after PMA stimulation
T1 sequence (P11247 139-718): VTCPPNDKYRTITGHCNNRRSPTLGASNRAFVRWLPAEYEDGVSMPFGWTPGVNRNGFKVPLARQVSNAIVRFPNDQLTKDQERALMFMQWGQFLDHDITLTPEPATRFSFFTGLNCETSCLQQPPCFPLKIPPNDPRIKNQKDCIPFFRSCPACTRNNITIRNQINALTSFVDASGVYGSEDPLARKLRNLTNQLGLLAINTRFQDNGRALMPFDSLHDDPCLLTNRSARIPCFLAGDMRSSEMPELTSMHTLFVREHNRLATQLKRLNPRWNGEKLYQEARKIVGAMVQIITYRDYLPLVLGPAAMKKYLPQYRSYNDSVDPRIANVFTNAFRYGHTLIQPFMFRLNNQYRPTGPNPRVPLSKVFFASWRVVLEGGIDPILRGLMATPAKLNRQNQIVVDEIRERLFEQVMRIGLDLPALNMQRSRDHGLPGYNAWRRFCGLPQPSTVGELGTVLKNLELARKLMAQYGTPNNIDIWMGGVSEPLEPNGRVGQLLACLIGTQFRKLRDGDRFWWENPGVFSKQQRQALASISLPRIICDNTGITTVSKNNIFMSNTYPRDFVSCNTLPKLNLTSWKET
The assay is described as follows: Myeloperoxidase (MPO) activity assay in SCF/2i GMP-derived granulocytes and blood neutrophils. It counts as cell-based. As to conditions: 100 nM for 2 hours.
Description: (F) ELISA analysis of cytokine secretion and MPO activity measurement in the indicated cells stimulated with 500 ng/ml LPS for 6 hours (for ELISA assay) or 100 nM PMA for 2 hours (for MPO assay). Data are represented as mean±SD from three independent experiments. Ctrl, no treatment control; ns, not significant.
Myeloperoxidase (MPO) assay. SCF/2i GMPs, blood neutrophils and SCF/2i GMP-derived granulocytes were plated into 96-well plates at a density of 2×10^4 cells/well and cultured in 100 μl RPMI 1640 medium supplemented with 10% FBS. […] The supernatants were harvested and MPO activities were measured using the neutrophil MPO activity assay kit (Cayman, 600620) according to the manufacturer's instructions.

Assay [4] deals with SCF/2i GMPs. The assay is described as follows: In vitro differentiation of SCF/2i GMPs, flow cytometry. It counts as cell-based, mouse. As to the method:
(A) Immunofluorescence and flow cytometry analysis of CD11b and F4/80 expression in cells differentiated from SCF/2i GMPs after treatment with M-CSF for 7 days. Flow cytometry data are represented as mean±SD from three independent experiments. (B) ELISA analysis of cytokine secretion in bone marrow (BM) and SCF/2i GMP-derived macrophages stimulated with 500 ng/ml LPS for 6 hours. Data are represented as mean±SD from three independent experiments. (C) Phagocytosis analysis of SCF/2i GMP-derived macrophages by incubating with FITC-labeled latex beads for 1 hour. Upper panel, a representative fluorescent image (green, FITC-labeled beads; blue, macrophage cell nuclei). Lower panel, flow cytometry analysis of SCF/2i GMP-derived macrophages incubated with (red) or without (blue) FITC-labeled latex beads. Flow cytometry data are represented as mean±SD from three independent experiments. (D) Time-lapse images of tdTomato-positive SCF/2i GMP-derived macrophages incubated with GFP labeled E. coli. The numbers on the images indicate the times in minutes. Arrows and arrowheads indicate the bacteria engulfed by macrophages. (E) Giemsa staining (upper panel) and flow cytometry analysis (lower panel) of SCF/2i GMPs treated with PBS or G-CSF for 3 days. Flow cytometry data are represented as mean±SD (n=5). […] A total of 192×3 wells from three independent experiments were counted for each group. […]
For orientation: A flow cytometer gives signals particle by particle.

For `Cc1cccc(-c2nn(C(=S)Nc3ccccc3)cc2-c2ccnc3ccccc23)n1` [A-8301], in assay [1], the “formation of colonies with uniform cell morphology” value is listed as “clusters of colonies were observed being formed”.

Turning to `Cc1c[nH]c(-c2cnc(NCCNc3ccc(C#N)cn3)nc2-c2ccc(Cl)cc2Cl)n1` [CHIR99021], the “ability to mimic the effect of SKL2001 for the expansion of mouse GMPs” value (shortened to “ability to mimic the effect of SKL2001”) in assay [2] is given as “could not mimic the effect of SKL2001”.

For the molecule `Cc1cc([N+](=O)[O-])ccc1NS(=O)(=O)c1cc(Cl)ccc1Cl` [FH535], the “effect on expansion of mouse GMPs in SCF/2i” value in assay [2] was “not affected”.

Regarding `O=C(Nc1cccc2cccnc12)c1ccc(N2C(=O)[C@@H]3[C@H](C2=O)[C@@H]2C=C[C@H]3C2)cc1` [IWR1], the “formation of colonies with uniform cell morphology” value in assay [1] was “clusters of colonies were observed being formed”. In addition, the “effect on expansion of mouse GMPs in SCF/2i” value in assay [2] was “not affected”.

Consider `CCCCCCCCCCCCCC(=O)O[C@@H]1[C@@H](C)[C@@]2(O)[C@@H](C=C(CO)C[C@]3(O)C(=O)C(C)=C[C@@H]23)[C@@H]2C(C)(C)[C@]12OC(C)=O` [PMA, phorbol myristate acetate], for which, in assay [3], the “MPO activity upon activation” value is given as “significantly increased”.

On to `C[S+]([O-])c1ccc(-c2nc(-c3ccncc3)c(-c3ccc(F)cc3)[nH]2)cc1` (centres unmarked) [SB203580], for which the “formation of colonies with uniform cell morphology” value in assay [1] was “clusters of colonies were observed being formed”.

Turning to `COc1cccc(-c2cc(NCc3ccc4c(c3)OCO4)nc(N)n2)c1` [Wnt agonist 1], in assay [2], the “ability to mimic the effect of SKL2001” value was “could not mimic the effect of SKL2001”.

On to Wnt3a, for which the “ability to mimic the effect of SKL2001” value in assay [2] is on record as “could not mimic the effect of SKL2001”.

B1: G-CSF: granulocyte colony stimulating factor (protein, UniProt P09919 31-207, looked up)
Granulocyte …: TPLGPASSLPQSFLLKCLEQVRKIQGDGAALQEKLVSECATYKLCHPEELVLLGHSLGIPWAPLSSCPSQALQLAGCLSQLHSGLFLYQGLLQALEGISPELGPTLDTLQLDVADFATTIWQQMEELGMAPALQPTQGAMPAFASAFQRRAGGVLVASHLQSFLEVSYRVLRHLAQP
Turning to B1, the “cells Ly6G+CD115−” value in assay [4] (SCF/2i GMPs treated for 3 days) was “more than 80%”.

B2: M-CSF: macrophage differentiation factor (protein, UniProt P09603 33-554, looked up)
Macrophage colony-stimulating …: EEVSEYCSHMIGSGHLQSLQRLIDSQMETSCQITFEFVDQEQLKDPVCYLKKAFLLVQDIMEDTMRFRDNTPNAIAIVQLQELSLRLKSCFTKDYEEHDKACVRTFYETPLQLLEKVKNVFNETKNLLDKDWNIFSKNCNNSFAECSSQDVVTKPDCNCLYPKAIPSSDPASVSPHQPLAPSMAPVAGLTWEDSEGTEGSSLLPGEQPLHTVDPGSAKQRPPRSTCQSFEPPETPVVKDSTIGGSPQPRPSVGAFNPGMEDILDSAMGTNWVPEEASGEASEIPVPQGTELSPSRPGGGSMQTEPARPSNFLSASSPLPASAKGQQPADVTGTALPRVGPVRPTGQDWNHTPQKTDHPSALLRDPPEPGSPRISSLRPQGLSNPSTLSAQPQLSRSHSSGSVLPLGELEGRRSTRDRRSPAEPEGGPASEGAARPLPRFNSVPLTDTGHERQSEGSFSPQLQESVFHLLVPSVILVLLAVGGLLFYRWRRRSHQEPQRADSPLEQPEGSPLTQDDRQVELPV
With B2, the “cells positive for both F4/80 and CD11b” value in assay [4] (SCF/2i GMPs treated for 7 days) is “more than 99%”.
